Reference: patent US12291501B2 (University of Florida Research Foundation, Inc., priority 2021, dated 2025)
Values joined by “and” are separate entries in the source; they are usually repeats but may differ in a detail not shown here. Equal entries are not always repeated. “Also recorded” adds a separate entry of the source. Where two headings read alike, the source gives them in different places.

Assays:
[1] = molecular target: T1, α4β2 nAChR (Homo sapiens, UniProt P17787+P43681); assay: Inhibition of control ACh responses by co-application, α4β2 nAChR in oocytes; assay type: cell-based; details: 3 μM compound co-applied with ACh; fraction of control ACh response
T1 construct: expressed in transfected cells; host or cells: Xenopus laevis oocytes
Description: (§1) Initial profiling against heteromeric receptors: The test compounds for their ability to activate or inhibit other nAChR subtypes were evaluated. Agonist activity was evaluated by applying the compounds at 100 or 30 μM to human α4β2 and α3β4 as well as to mouse muscle α1β1εδ nAChR expressed in Xenopus oocytes. […] The inhibitory activity was generally low (Table 3).
(§2) Molecular Biology: Plasmid DNAs encoding the human α7 and heteromeric nAChR were obtained from Jon Lindstrom (University of Pennsylvania, Philadelphia, PA). Mouse muscle subunit clones were obtained from Jim Boulter (Salk Institute, La Jolla CA) and Paul Gardner (Dartmouth, Hanover NH). The human resistance-to-cholinesterase 3 ([…]) clone was obtained from Millet Treinin (Hebrew University, Jerusalem, Israel) and RNA co-injected with α7 to improve the level and speed of receptor expression without affecting their pharmacological properties. Plasmid DNA encoding the human α10 nAChR was obtained from J. Michael McIntosh. Plasmid DNA encoding the human α9 nAChR and the human receptor-associated protein of the synapse (RAPSYN) with codon optimization for expression in Xenopus laevis were obtained from Katrin Richter. RAPSYN RNA was co-injected with the α9 and α10 to improve expression (Richter et al., (2022) Front. Cell Neurosci. 16: 779081). After linearization and purification of the plasmid DNAs, RNAs were prepared using the mMessage mMachine in vitro RNA transcription kit (Ambion, Austin, TX). Frogs were maintained in the Animal Care Service facility of the University of Florida, and all procedures were approved by the University of Florida Institutional Animal Care and Use Committee (approval number 202002669). In brief, the animals were first anesthetized for 15-20 min in 1.5 l frog tank water containing 1 g of MS-222 buffered with sodium bicarbonate. Oocytes were obtained surgically from mature female Xenopus laevis (Nasco, Ft. Atkinson WI, USA) and treated with 1.4 mg/ml type 1 collagenase (Worthington Biochemicals, Freehold NJ, USA) for 2-4 h at rt in Ca2+-free Barth's solution (88 mM NaCl, 1 mM KCl, 2.38 mM NaHCO3, 0.82 mM MgSO4, 15 mM HEPES, and 12 mg/l tetracycline, pH 7.6) to remove the ovarian tissue and the follicular layers. Stage V oocytes were injected with 4-6 ng CHRNA7 RNA and 2-3 ng RIC3 RNA (2:1 ratio) in 50 nl water, or with 12 ng CHRNA9 RNA and 3 ng RAPSN RNA, or along with 12 ng CHRNA10 RNA in 50 nl water. Oocytes were maintained in Barth's solution containing 0.32 mM Ca(NO3)2 and 0.41 mM CaCl2, and recordings were conducted 2-20 days after injection.
(§3) Electrophysiology: Two-electrode voltage-clamp experiments were conducted using OpusXpress 6000A (Molecular Devices, Union City CA, USA). Both the voltage and current electrodes were filled with 3 M KCl. Oocytes were voltage-clamped at −60 mV at rt. The oocytes were perfused with Ringer's solution (115 mM NaCl, 2.5 mM KCl, 1.8 mM CaCl2, 10 mM HEPES, 1 μM atropine, pH 7.2) at 2 ml/min. […] Drug applications were 12 s in duration followed by 181 s washout periods.
(§4) The responses were calculated as both peak-current amplitudes and net charge. Data were collected at 50 Hz, filtered at 20 Hz, and analyzed by Clampfit (Molecular Devices) and Excel (Microsoft, Redmond, WA, United States). Data are expressed as means±SEM from at least five oocytes for each experiment and plotted with Kaleidagraph 4.5.2 (Abelbeck Software, Reading, PA, United States). Each episode of data acquisition was a total of 210 s and included an initial 30 s period used to define the baseline for the drug-evoked responses. After 30 s, drugs were applied, and the following 120 s were defined as the drug response period for analysis. […] The values for the curve fits were generated using the Levenberg-Marquardt algorithm to obtain the best Chi-Square fit to the Hill equation using the Kaleidagraph 4.5.2 plotting program. The errors in the tables are the calculated standard errors of the fit parameters based on the goodness of fit.

[2] = molecular target: T2, α1β1εδ nAChR (Mus musculus, UniProt P02716+P04756+P09690+P20782); assay: Inhibition of control ACh responses by co-application, muscle α1β1εδ nAChR in oocytes; assay type: cell-based; details: 3 μM compound co-applied with ACh; fraction of control ACh response
T2 construct: expressed in transfected cells; host or cells: Xenopus laevis oocytes
Description: as §1, §2, §3, §4

[3] = molecular target: T3, α9 nAChR (Homo sapiens, UniProt Q9UGM1); assay: Two-electrode voltage-clamp, agonist concentration-response, α9 nAChR in Xenopus oocytes; assay type: cell-based; details: for EC50 / α9 Imax: peak currents, ± standard error of fit; for α9 Imax: relative to ACh (Imax = 1)
T3 construct: expressed in transfected cells; host or cells: Xenopus laevis oocytes, injected with in vitro transcribed RNA
Text: (§5) Electrophysiology: Xenopus oocytes were microinjected with RNAs to produce functional nAChR which were characterized by two-electrode voltage-clamp measurements. FIGS. 5A-7D present concentration-response curves for the new compounds evaluated with α7, α9, and α9α10 receptors. Table 1 presents the values for Imax and EC50 with these receptors and Table 2 summarizes inhibition data for the compounds with heteromeric nAChR.
as §2, §3
as §4, with “The errors in the tables are the calculated standard errors of the fit parameters based on the goodness of fit.” left out

[4] = molecular target: T4, α7 nAChR (Homo sapiens, UniProt P36544); assay: α7 responses to drugs co-applied with the PAM PNU-120596 (silent agonism); assay type: cell-based; details: for Response co-applied with PNU-120596, normalized to ACh co-applied with PNU-120596: drug 30 μM + 10 μM PNU-120596, normalized to 30 μM ACh + 10 μM PNU-120596
T4 construct: expressed in transfected cells; host or cells: Xenopus laevis oocytes, injected with in vitro transcribed RNA
Text: (§6) Molecular Biology: Plasmid DNAs encoding the human α7 and heteromeric nAChR were obtained from Jon Lindstrom (University of Pennsylvania, Philadelphia, PA). Mouse muscle subunit clones were obtained from Jim Boulter (Salk Institute, La Jolla CA) and Paul Gardner (Dartmouth, Hanover NH). […] Plasmid DNA encoding the human α10 nAChR was obtained from J. Michael McIntosh. Plasmid DNA encoding the human α9 nAChR and the human receptor-associated protein of the synapse (RAPSYN) with codon optimization for expression in Xenopus laevis were obtained from Katrin Richter. […] After linearization and purification of the plasmid DNAs, RNAs were prepared using the mMessage mMachine in vitro RNA transcription kit (Ambion, Austin, TX). […] Oocytes were maintained in Barth's solution containing 0.32 mM Ca(NO3)2 and 0.41 mM CaCl2, and recordings were conducted 2-20 days after injection.
(§7) Electrophysiology: Two-electrode voltage-clamp experiments were conducted using OpusXpress 6000A (Molecular Devices, Union City CA, USA). Both the voltage and current electrodes were filled with 3 M KCl. Oocytes were voltage-clamped at −60 mV at rt.
as §4

[5] = molecular target: T5, α9α10 nAChR (Homo sapiens, UniProt Q9GZZ6+Q9UGM1); assay: Two-electrode voltage-clamp, agonist concentration-response, α9α10 nAChR in Xenopus oocytes; assay type: cell-based; details: for EC50 / α9α10 Imax: peak currents, ± standard error of fit; for α9α10 Imax: relative to ACh (Imax = 1)
T5 construct: expressed in transfected cells; host or cells: Xenopus laevis oocytes, injected with in vitro transcribed RNA
Text: as §5, §2, §3
as §4, with “The errors in the tables are the calculated standard errors of the fit parameters based on the goodness of fit.” left out

[6] = molecular target: T4, α7 nAChR; assay: Two-electrode voltage-clamp, agonist concentration-response, α7 nAChR in Xenopus oocytes; assay type: cell-based; details: for EC50 / α7 Imax: net charge, ± standard error of fit; for α7 Imax: relative to ACh (Imax = 1)
Text: as §5, §6, §7, §4

[7] = molecular target: T6, α3β4 nAChR (Homo sapiens, UniProt P30926+P32297); assay: Inhibition of control ACh responses by co-application, α3β4 nAChR in oocytes; assay type: cell-based; details: 3 μM compound co-applied with ACh; fraction of control ACh response
T6 construct: expressed in transfected cells; host or cells: Xenopus laevis oocytes
Description: as §1, §2, §3, §4

[8] = molecular target: T4, α7 nAChR; details: cited from earlier work; for Agonist character at α7: earlier reports / Papke et al. (2022)
[9] = molecular target: T3, α9 nAChR; details: earlier reports / Papke et al. (2022), Richter et al. (2022); cited from earlier work
[10] = molecular target: T5, α9α10 nAChR; details: relative to ACh (Imax = 1); data taken from Papke et al. (2022); cited from earlier work
[11] = 3e vs larger ammonium analogs, 3h relative to 3g

T4 sequence (P36544 23-502): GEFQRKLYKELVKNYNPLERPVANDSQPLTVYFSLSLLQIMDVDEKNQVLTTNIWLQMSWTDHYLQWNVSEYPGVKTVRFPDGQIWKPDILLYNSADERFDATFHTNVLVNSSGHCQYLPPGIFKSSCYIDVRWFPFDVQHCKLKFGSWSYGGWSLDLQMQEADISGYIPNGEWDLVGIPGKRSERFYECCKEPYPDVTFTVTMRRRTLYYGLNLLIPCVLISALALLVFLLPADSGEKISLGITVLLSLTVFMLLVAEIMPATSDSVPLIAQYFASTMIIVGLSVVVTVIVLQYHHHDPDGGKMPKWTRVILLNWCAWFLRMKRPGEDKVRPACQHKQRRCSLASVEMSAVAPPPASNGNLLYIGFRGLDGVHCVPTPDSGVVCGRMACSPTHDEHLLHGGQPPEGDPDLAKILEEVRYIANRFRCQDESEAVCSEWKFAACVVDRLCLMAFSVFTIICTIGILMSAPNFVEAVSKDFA
T1 sequence (P43681 29-627 limits assumed): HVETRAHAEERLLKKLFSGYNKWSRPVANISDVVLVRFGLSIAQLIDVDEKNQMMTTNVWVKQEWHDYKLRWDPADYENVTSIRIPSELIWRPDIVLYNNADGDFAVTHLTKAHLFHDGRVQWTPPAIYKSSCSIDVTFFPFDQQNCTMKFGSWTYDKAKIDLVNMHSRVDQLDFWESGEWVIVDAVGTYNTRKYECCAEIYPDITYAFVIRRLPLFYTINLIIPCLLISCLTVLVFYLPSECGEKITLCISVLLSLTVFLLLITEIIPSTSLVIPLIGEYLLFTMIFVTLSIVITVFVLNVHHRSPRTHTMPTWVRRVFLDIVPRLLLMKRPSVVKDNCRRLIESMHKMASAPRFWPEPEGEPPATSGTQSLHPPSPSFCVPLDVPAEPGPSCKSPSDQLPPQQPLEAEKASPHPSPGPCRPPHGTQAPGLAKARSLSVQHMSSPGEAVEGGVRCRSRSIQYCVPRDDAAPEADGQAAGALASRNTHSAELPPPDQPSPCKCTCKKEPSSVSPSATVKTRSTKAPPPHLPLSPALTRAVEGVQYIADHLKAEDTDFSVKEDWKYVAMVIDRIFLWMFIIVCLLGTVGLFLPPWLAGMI
T1 sequence (P17787 26-502): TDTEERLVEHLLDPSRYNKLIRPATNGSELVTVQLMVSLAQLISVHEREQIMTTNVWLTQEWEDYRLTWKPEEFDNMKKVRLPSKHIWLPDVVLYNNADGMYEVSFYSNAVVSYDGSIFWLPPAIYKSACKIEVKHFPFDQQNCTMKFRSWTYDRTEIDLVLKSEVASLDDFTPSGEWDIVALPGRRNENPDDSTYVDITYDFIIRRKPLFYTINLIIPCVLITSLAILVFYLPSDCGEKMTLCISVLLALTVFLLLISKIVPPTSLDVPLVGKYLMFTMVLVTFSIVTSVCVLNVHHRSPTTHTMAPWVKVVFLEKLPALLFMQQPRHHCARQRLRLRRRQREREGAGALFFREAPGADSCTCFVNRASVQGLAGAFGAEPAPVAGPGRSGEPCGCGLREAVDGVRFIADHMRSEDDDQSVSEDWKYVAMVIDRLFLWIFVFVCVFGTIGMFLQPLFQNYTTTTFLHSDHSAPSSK
T5 sequence (Q9UGM1 26-479 limits assumed): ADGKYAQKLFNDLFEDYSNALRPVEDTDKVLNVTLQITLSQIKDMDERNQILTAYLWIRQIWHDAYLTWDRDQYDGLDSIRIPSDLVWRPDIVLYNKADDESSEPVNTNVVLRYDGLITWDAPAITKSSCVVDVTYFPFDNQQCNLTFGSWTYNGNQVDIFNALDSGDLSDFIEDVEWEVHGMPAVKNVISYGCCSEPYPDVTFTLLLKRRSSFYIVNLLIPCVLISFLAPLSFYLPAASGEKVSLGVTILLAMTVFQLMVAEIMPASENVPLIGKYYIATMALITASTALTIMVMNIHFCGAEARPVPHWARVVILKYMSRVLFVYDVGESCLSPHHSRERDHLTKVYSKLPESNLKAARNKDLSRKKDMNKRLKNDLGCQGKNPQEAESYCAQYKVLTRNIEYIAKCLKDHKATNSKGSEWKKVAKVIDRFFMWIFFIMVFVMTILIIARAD
T5 sequence (Q9GZZ6 25-450): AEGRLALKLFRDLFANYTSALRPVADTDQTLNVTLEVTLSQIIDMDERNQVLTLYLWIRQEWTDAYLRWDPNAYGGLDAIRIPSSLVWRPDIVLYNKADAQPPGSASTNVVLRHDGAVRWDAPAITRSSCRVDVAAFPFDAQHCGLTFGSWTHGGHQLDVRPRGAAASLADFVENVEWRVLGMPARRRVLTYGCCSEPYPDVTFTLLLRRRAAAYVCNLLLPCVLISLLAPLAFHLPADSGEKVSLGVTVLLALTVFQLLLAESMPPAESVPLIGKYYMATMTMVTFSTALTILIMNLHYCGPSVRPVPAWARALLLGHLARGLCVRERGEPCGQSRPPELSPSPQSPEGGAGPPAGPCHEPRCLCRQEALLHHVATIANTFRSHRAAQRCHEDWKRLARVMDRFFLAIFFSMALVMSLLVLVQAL
T3 sequence (Q9UGM1 26-479 limits assumed): as the sequence (Q9UGM1 26-479 limits assumed) above
T2 sequence (P04756 21-457): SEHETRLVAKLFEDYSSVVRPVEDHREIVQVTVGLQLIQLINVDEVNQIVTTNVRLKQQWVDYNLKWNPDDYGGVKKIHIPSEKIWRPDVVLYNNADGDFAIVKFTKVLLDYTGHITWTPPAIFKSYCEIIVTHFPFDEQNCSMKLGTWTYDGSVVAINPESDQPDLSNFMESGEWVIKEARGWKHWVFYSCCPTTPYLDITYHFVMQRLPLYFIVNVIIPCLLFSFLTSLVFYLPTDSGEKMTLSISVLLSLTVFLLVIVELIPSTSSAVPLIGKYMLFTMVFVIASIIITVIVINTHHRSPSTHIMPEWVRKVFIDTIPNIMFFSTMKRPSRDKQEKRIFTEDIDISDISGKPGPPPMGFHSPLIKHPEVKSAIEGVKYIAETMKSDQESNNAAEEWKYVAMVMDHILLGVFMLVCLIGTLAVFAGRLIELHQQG
T2 sequence (P09690 24-501): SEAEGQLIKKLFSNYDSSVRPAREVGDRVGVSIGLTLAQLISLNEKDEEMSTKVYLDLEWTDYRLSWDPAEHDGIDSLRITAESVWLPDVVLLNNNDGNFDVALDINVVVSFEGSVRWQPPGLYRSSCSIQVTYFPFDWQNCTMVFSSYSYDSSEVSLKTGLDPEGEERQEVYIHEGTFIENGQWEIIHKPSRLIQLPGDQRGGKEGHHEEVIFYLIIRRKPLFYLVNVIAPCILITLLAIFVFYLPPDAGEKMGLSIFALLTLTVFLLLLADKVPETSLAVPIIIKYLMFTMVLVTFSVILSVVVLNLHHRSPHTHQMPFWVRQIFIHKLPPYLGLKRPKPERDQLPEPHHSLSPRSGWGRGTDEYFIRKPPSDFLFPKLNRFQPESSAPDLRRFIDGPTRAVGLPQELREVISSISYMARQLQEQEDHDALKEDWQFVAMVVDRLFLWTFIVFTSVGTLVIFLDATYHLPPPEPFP
T2 sequence (P20782 21-493): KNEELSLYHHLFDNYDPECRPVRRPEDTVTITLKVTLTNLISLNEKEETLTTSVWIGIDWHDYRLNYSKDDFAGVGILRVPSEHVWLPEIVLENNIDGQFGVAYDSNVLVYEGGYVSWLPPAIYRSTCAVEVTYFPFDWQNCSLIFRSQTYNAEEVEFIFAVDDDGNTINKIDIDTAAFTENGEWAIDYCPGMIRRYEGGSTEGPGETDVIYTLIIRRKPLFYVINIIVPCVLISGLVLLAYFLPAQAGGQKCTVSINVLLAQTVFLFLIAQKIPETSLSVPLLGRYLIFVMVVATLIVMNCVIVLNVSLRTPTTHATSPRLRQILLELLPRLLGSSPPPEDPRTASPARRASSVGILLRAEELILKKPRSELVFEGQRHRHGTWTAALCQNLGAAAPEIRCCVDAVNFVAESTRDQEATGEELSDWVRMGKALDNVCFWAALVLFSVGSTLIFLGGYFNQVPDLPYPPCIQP
T2 sequence (P02716 25-520): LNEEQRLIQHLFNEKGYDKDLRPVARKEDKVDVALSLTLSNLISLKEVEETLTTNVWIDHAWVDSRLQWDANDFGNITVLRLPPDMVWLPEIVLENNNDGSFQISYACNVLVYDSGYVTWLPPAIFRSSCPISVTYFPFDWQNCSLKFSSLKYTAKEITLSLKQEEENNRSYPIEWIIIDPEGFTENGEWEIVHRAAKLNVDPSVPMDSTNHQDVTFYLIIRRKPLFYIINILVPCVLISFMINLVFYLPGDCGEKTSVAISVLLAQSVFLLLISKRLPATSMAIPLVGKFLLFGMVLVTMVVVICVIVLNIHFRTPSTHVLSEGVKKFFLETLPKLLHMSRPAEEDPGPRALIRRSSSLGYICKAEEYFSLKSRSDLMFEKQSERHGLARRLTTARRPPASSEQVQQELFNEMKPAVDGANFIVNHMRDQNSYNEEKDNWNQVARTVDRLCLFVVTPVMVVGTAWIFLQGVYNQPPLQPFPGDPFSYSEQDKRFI

| SMILES | Effect of co-application on the control ACh responses, α4β2 [1] | Effect of co-application on the control ACh responses, α1β1εδ [2] | Agonist character / efficacy at α9 [3] | EC50 [3] [µM] | α9 Imax [3] | Response co-applied with PNU-120596, normalized to ACh co-applied with PNU-120596 [4] | EC50 [5] [µM] | α9α10 Imax [5] | EC50 [6] [µM] | α7 Imax [6] | Effect of co-application on the control ACh responses, α3β4 [7] | Agonist character at α7 [8] | Agonist character / efficacy at α7 [6] | other results |
| --- | --- | --- | --- | --- | --- | --- | --- | --- | --- | --- | --- | --- | --- | --- |
| Cc1cccc(NC(=O)c2ccc(N3CC[N+](C)(C)CC3)cc2)n1.[I-] [Compound 3e, 1,1-dimethyl-4-(4-((6-methylpyridin-2-yl)carbamoyl)phenyl)piperazin-1-ium iodide] | 0.912 ± 0.038 | 0.709 ± 0.091 | partial agonist | 7 ± 6 | 0.51 ± 0.07 | 0.16 | 4.2 ± 1.5 | 0.89 ± 0.07 | 4.3 ± 1 | 0.57 ± 0.03 and 0.57 | 0.838 ± 0.037 |  |  | Fold loss of potency at α9 relative to comparator compound [3, 11]: about 10 fold; Agonist character / efficacy at α9α10 [5]: fully efficacious agonist; Fold loss of potency at α9α10 relative to comparator compound [5, 11]: about 10 fold |
| CC[N+]1(CC)CCCCC1 [diE-piperidinium, reference compound] |  |  |  |  |  |  |  |  |  |  |  | silent agonist |  |  |
| CC[N+]1(C)CCN(c2ccc(C(=O)Nc3cccc(C)n3)cc2)CC1.[I-] [Compound 3f, 1-ethyl-1-methyl-4-(4-((6-methylpyridin-2-yl)carbamoyl)phenyl)piperazin-1-ium iodide] | 0.858 ± 0.045 | 0.413 ± 0.070 | full agonist |  | 1.19±0.03 | 0.13 |  | 0.92±0.04 | 4.3 to 6.4 | 0.40 ± 0.02 and 0.4 | 0.849 ± 0.018 |  |  |  |
| CC[N+]1(CC)CCN(c2ccc(C(F)(F)F)cc2)CC1 [pCF3-diEPP, reference compound] |  |  |  |  |  |  |  |  |  |  |  |  |  | Agonist character at α9 [9]: partial agonist |
| C[N+]1(C)CCCCC1 [diM-piperidinium, reference compound] |  |  |  |  |  |  |  |  |  |  |  | essentially a full agonist |  |  |
| CC[N+]1(CC)CCN(c2ccc(C(=O)Nc3cccc(C)n3)cc2)CC1.[I-] [Compound 2, 1,1-diethyl-4-(4-((6-methylpyridin-2-yl)carbamoyl)phenyl)piperazin-1-ium iodide] |  |  | full agonist |  |  |  |  |  |  |  |  | partial agonists | partial agonist | EC50 ([8]; data taken from Papke et al. (2022)): 4.3 to 6.4 µM; α7 Imax ([8]; relative to ACh (Imax = 1), data taken from Papke et al. (2022)): 0.40-0.57; α9α10 Imax [10]: 0.90 ± 0.02; Agonist character at α9 [9]: full α9 agonist |
| CC[N+]1(CC)CCN(c2ccc(C(=O)Nc3cccc(C)c3)cc2)CC1.[I-] [Compound 3d, 1,1-diethyl-4-(4-(m-tolylcarbamoyl)phenyl)piperazin-1-ium iodide] | 0.807 ± 0.048 | 0.555 ± 0.060 |  | 1.28 ± 0.62 | 1.25 ± 0.14 | 0.17 | 0.61 ± 0.08 | 1.12 ± 0.03 | 1.3 ± 0.1 | 0.60 ± 0.02 and 0.6 | 1.039 ± 0.015 |  | partial agonists |  |
| CC[N+]1(CC)CCN(c2ccc(-n3cccc3)cc2)CC1.[I-] [Compound 3i, 4-(4-(1H-pyrrol-1-yl)phenyl)-1,1-diethylpiperazin-1-ium iodide] | 0.709 ± 0.086 | 0.691 ± 0.094 | reduced efficacy; also recorded: weakened partial agonist | 1.12 ± 0.25 | 0.27 ± 0.01 | 0.08 | 1.5 ± 0.6 | 0.17 ± 0.01 | 27 ± 4 | 0.041 ± 0.002 and 0.041 | 0.387 ± 0.057 |  | reduced efficacy | Response co-applied with PNU-120596 relative to the ACh controls ([4]; 30 μM compound + 10 μM PNU-120596, relative to ACh alone controls): ~2 times; Agonist character / efficacy at α9α10 [5]: weakened partial agonist |
